Results on two compounds are retold here after patent US10280152B2, “Imaging of glycogen synthase kinase 3” (The General Hospital Corporation, priority 2015, dated 2019).

As a reminder, the logD is lipophilicity at a set pH, counting ionised and neutral species.

Data set [1] relates to other structurally similar kinases. The settings on record: cited from earlier work.
Data set [2] deals with GSK-3. The settings on record: literature radiotracers; SB-216763 in rodents and non-human primates; cited from earlier work.
Data set [3] concerns GSK-3. Kind of data set: PET imaging in rat. Conditions: rat (n=1), bolus i.v., at 1-2 min. The data set is classed as in vivo.
The nature of data set [4]: Determination of Log D7.4 (1-octanol/PBS shake flask, gamma counting). It is filed as physicochemical. Conditions: 1-octanol / PBS buffer pH 7.4, n=7. The protocol: The measurement of lipophilicity was carried out using literature procedure. Purified and reformulated [^11C] labelled compound (1) (˜50 μL) was added to a separating funnel containing PBS buffer (pH 7.4) and 1-octanol (pre-saturated with PBS buffer) (˜20 mL each). The octanol layer was collected and dispensed into 8 centrifuge tubes (2 mL each) containing PBS buffer (2 mL each). The tubes were mixed by vortex for 2 min and then centrifuged for 5 min. Approximately 0.5 mL of the octanol layer and 1.0 mL of the aqueous from each centrifuge tube was then transferred to pre-weighed test tubes (16 in total). The tubes were capped and assayed using an automated gamma counter. The tubes were then uncapped and weighed to determine the total volume of the liquid in each. The log D7.4 of [^11C] labelled compound (1) was determined to be 2.14 (n=7).

Data set [5] relates to GSK-3. Kind of data set: PET imaging in rhesus monkeys. It is filed as in vivo. The settings on record: for brain penetration and specific binding (in words): PET imaging in animals / non-human primate brain. The protocol: To determine the in vivo distribution and pharmacokinetic profile of compound (1) in higher species of nonhuman primates, compound (1) was radiolabelled with carbon-11 and the permeability of compound (1) was evaluated in the living brain using positron emission tomography. [^11C] labelled compound (1) was synthesized in 5% uncorrected radiochemical yield (relative to [^11C]CO2) by reaction of the corresponding phenolic precursor in the presence of tetrabutylammonium hydroxide in DMF with [^11C]CH3I with specific activity >2 Ci/μmol (n=15).
Bolus i.v. administration of [^11C]-labelled compound (1) in rhesus monkeys (5-7 mCi) reached a whole brain peak uptake (2 SUV) with fairly uniform brain distribution followed by a fast clearance (1 SUV at 40 min). […] Liang et al., “Discovery of [^11C]PF-367 for neuroimaging of glycogen synthase kinase 3”, J. Nucl. Med., 2015, 56(Supp. 3), 491.

Consider `[11CH3]n1cc(C2=C(c3ccc(Cl)cc3Cl)C(=O)NC2=O)c2ccccc21` [[^11C]SB-216763], for which the “selectivity against other structurally similar kinases (in words)” value in data set [1] is “not selective”. Moreover, the “brain uptake in vivo (in words)” value in the data set with GSK-3 [2] is recorded as “good brain uptake”.
Take `[11CH3]Oc1ccc(-c2ocnc2C(=O)NCCCn2cncn2)cc1Cl` [compound (2), N-(3-(1H-1,2,4-Triazol-1-yl)propyl)-5-(3-chloro-4-[^11C]methoxyphenyl)oxazole-4-carboxamide]: the maximum uptake entry in the data set on GSK-3 [3] is reported as “about 1 SUV”. In data set [4], this compound showed a log distribution coefficient (logD) of 2.14. In addition, the “brain penetration and specific binding (in words)” value in the data set with GSK-3 [5] (listed as 11C-isotopologue of compound (1)) is “high brain permeability and specificity”; in the data set with GSK-3 [5] (listed as [^11C] labelled compound (1)) it was “confirmed brain penetration and displaceable specific binding”. In addition, in the data set on GSK-3 [5] (rhesus monkeys, bolus i.v., 5-7 mCi, baseline), the “whole brain peak uptake” value was found to be 2 SUV. Further, in the data set with GSK-3 [5] (rhesus monkeys, bolus i.v., baseline, 40 min), the “brain uptake at 40 min (clearance)” value was determined as 1 SUV. Further, the peak uptake with GSK-3 [5] (rhesus monkeys, co-administration with unlabelled compound (1) 0.1 mg/kg) was 3.5 SUV. For the same compound, the “binding at 40 min in all brain regions” value in the data set with GSK-3 [5] (rhesus monkeys, co-administration with unlabelled compound (1) 0.1 mg/kg, 40 min) came to 0.3 SUV.
